Ends that are not written are not given here.
System: peptide-loaded lymphoblastoid cell lines (LCL)
Assay: 51Cr-release cytotoxicity assay with peptide-specific CD8+ CTL
Type: cell-based, human
Experimental: Monocyte-derived dendritic cells were generated from peripheral blood drawn from normal adult donors of the appropriate HLA type. Adherent monocytes were cultured in AIM-V (Gibco-BRL) supplemented with GM-CSF and IL-4 according to standard techniques (Santin et al, 2000, 2001). After 5-6 days, dendritic cell maturation was induced by addition of PGE2, IL-1β and TNFα for a further 48 h.
Mature dendritic cells were loaded with peptide (2×10^6 dendritic cells with 50 μg/ml peptide in 1 ml serum-free AIM-V medium for 2 h at 37° C.) and washed once prior to culture with 1×10^6/ml peripheral blood mononuclear cells (PBMC) in AIM-V or AIM-V plus 5% human AB serum. The PBMC:DC ratio was between 20:1 and 30:1. After 7 days, responder T cells were restimulated with peptide-loaded, irradiated autologous dendritic cells or peripheral blood mononuclear cells at responder:stimulator ratios between 10:1 and 20:1 or 1:1 and 1:10 respectively. At this point, cultures were supplemented with recombinant human IL-2 (10-100 U/ml), and fed with 50-75% changes of fresh medium plus IL-2 every 2-4 days. T cell lines were established and maintained by peptide restimulation every 14-21 days. Responder CD8^+T cells were purified by positive selection with anti-CD8-coupled magnetic beads (Dynal, Inc.) after the 2nd or 3rd antigen stimulation.
Peptide-specific cytotoxicity was tested in standard 5-6 h microwell ^51Cr-release assays (Nazaruk et al, 1998). Autologous EBV-transformed lymphoblastoid cell lines (LCL) were loaded with peptide (50 μg/ml, 1 h at 37° C.) and subsequently ^51Cr-labeled (50 μCi in 200-300 μl, 1 h at 37° C.). Peptide-loaded ^51Cr-labeled LCL were incubated with CD8^+T cells at effector-target ration between 5:1 and 1.25:1. Cytotoxicity was recorded as percentage ^51Cr released into culture supernatants.

Sequence	Blocking of cytotoxicity against peptide-loaded LCL by MAb specific for a non-polymorphic HLA class I determinant	Blocking of cytotoxicity by MAb specific for HLA A2.1
GRWPWQVSL [GRWPWQVSL]	could be blocked	
SLGRWPWQV [SLGRWPWQV]	could be blocked	blocked
